Publication PMC9386018, “A lymphatic-absorbed multi-targeted kinase inhibitor for myelofibrosis therapy” (Nature Communications, 2022)
Several values for one entry are separate records, joined by “and”; a condition that tells them apart may be missing. Identical values can stand only once. Values belong to the compound of their own block, whether it stands above or below them.

Experiments:
MAPK signaling = settings: cited from earlier work
SET-2 cells = test: SET-2 proliferation assay (CellTiter-Fluor); format: cell-based, human; settings: 72 h, replicates (Fig. 2d)
Procedure: Viable cells were counted by CellTiter-Fluor Assay (Promega) according to manufacturer’s protocol, and all fluorescence values were corrected by a no-cell control. […] Caspase activity was measured by Caspase-Glo 3/7 assay (Promega) according to the manufacturer’s protocol, and all luminescence values were corrected by a no-cell control. Dose response proliferation and Caspase activation data was normalized to vehicle treated control cells and analyzed by non-linear regression for determination of IC50 values. Data was generated from n = 3 independent experiments performed in replicate.

[1] = Pharmacokinetic analysis of plasma after intravenous and oral dosing
[2] = Compound quantitation in blood and mesenteric lymph nodes; format: in vivo, mouse; settings: mice, 4 h after oral 100 mg kg^−1
Procedure: Whole blood and mesenteric lymph nodes were collected either 30 min or 4 h following compound administration and stored at −20 °C until future processing and analysis by the University of Michigan Pharmacokinetics Core as above, or as outlined below, to determine compound concentrations in each tissue. […] Data was generated from n ≥ 4 individual animals per compound per study group or dose.
Briefly, acetonitrile was added to a final concentration of 60–80% to bone marrow, whole blood, plasma, lymphatic fluid, lymphatic proteo-lipid sub-fractions, or mesenteric lymph node samples for compound extraction. Extraction was performed by shaking and/or bead rupture using a Precellys Evolution tissue homogenizer (Bertin Technologies SAS). […] Optimization of MS and MS/MS parameters for MRM quantitation and maximum sensitivity of individual compounds was performed using SCIEX Analyst software (AB Sciex). […] All LC-MS/MS acquisitions were performed with an independent standard curve for each group of analytes and for each individual run. All solvents utilized were of Optima LC-MS Grade (Fisher Scientific). Data was generated from n ≥ 2 individual animals per compound per study condition or dose.

in vivo = settings: female, CD-1, mouse
[3] = female, CD-1, mouse, in vivo, po, 0.167 h

Compound: O=C(NOC[C@H](O)CO)c1ccc(F)c(F)c1Nc1ccc(I)cc1F [PD0325901]
plasma concentration with significant pharmacologic activity against MAPK signaling (MAPK signaling): > 50 ng mL^−1

Compound: O=C(NOCCO)c1ccc(F)c(F)c1Nc1ccc(I)cc1F [PD0316684, reference compound]
Growth (%) (SET-2 cells; 0.0390625 µM): 95.6027% and 82.3855% and 49.4653% and 99.6209% and 66.699% and 96.6844% | Growth (%) (SET-2 cells; 0.078125 µM): 101.495% and 98.0639% and 103.106% and 103.604% and 92.0053% and 98.1242% | Growth (%) (SET-2 cells; 0.15625 µM): 100.075% and 88.7042% and 52.4529% and 86.403% and 62.7397% and 78.9368% | Growth (%) (SET-2 cells; 0.3125 µM): 97.1172% and 98.6318% and 60.2388% and 84.8639% and 78.1339% and 80.2658% | Growth (%) (SET-2 cells; 0.625 µM): 88.0297% and 91.2009% and 71.3744% and 84.6376% and 79.2414% and 81.5948% | Growth (%) (SET-2 cells; 5 µM): 71.6887% and 74.5167% and 60.9631% and 39.5066% and 70.9074% and 51.4432% | Growth (%) (SET-2 cells; 10 µM): 49.6443% and 48.6858% and 23.1653% and 17.5522% and 22.5652% and 22.2053% | Growth (%) (SET-2 cells; 20 µM): 15.211% and 15.14% and -3.18% and -3.361% and -4.513% and -3.5163% | concentration at 0.167 h ([1]; female, CD-1, mouse, plasma, iv, 15 mg kg^−1, Concentration (ng/mL), mice, single i.v. LP-182 15 mg kg^−1, 0.167 h, analyte = label, individual animals): 771 ng/mL | concentration at 1 h ([1]; female, CD-1, mouse, plasma, iv, 15 mg kg^−1, Concentration (ng/mL), mice, single i.v. LP-182 15 mg kg^−1, 1 h, analyte = label, individual animals): 95.3 ng/mL | concentration at 2 h ([1]; female, CD-1, mouse, plasma, iv, 15 mg kg^−1, Concentration (ng/mL), mice, single i.v. LP-182 15 mg kg^−1, 2 h, analyte = label, individual animals): 58.1 ng/mL | concentration at 4 h ([1]; female, CD-1, mouse, plasma, iv, 15 mg kg^−1, Concentration (ng/mL), mice, single i.v. LP-182 15 mg kg^−1, 4 h, analyte = label, individual animals): 18.6 ng/mL | concentration at 7 h ([1]; female, CD-1, mouse, plasma, iv, 15 mg kg^−1, Concentration (ng/mL), mice, single i.v. LP-182 15 mg kg^−1, 7 h, analyte = label, individual animals): 5.74 ng/mL | concentration at 16 h ([1]; female, CD-1, mouse, plasma, iv, 15 mg kg^−1, Concentration (ng/mL), mice, single i.v. LP-182 15 mg kg^−1, 16 h, analyte = label, individual animals): 3.59 ng/mL | concentration at 0.167 h ([1]; female, CD-1, mouse, plasma, iv, 15 mg kg^−1, Concentration, Figure 6c, Time 0.167 h, individual replicates): 89.6 ng/mL | concentration at 1 h ([1]; female, CD-1, mouse, plasma, iv, 15 mg kg^−1, Concentration, Figure 6c, Time 1 h, individual replicates): 39.4 ng/mL | concentration at 2 h ([1]; female, CD-1, mouse, plasma, iv, 15 mg kg^−1, Concentration, Figure 6c, Time 2 h, individual replicates): 18.7 ng/mL | concentration at 0.167 h ([1]; female, CD-1, mouse, plasma, iv, 15 mg kg^−1, Concentration, Figure 6d, Time 0.167 h, individual replicates): 234 ng/mL | concentration at 0.5 h ([1]; female, CD-1, mouse, plasma, iv, 15 mg kg^−1, Concentration, Figure 6d, Time 0.5 h, individual replicates): 241 ng/mL | concentration at 1 h ([1]; female, CD-1, mouse, plasma, iv, 15 mg kg^−1, Concentration, Figure 6d, Time 1 h, individual replicates): 112 ng/mL | concentration at 2 h ([1]; female, CD-1, mouse, plasma, iv, 15 mg kg^−1, Concentration, Figure 6d, Time 2 h, individual replicates): 62.8 ng/mL | concentration at 4 h ([1]; female, CD-1, mouse, plasma, iv, 15 mg kg^−1, Concentration, Figure 6d, Time 4 h, individual replicates): 39.4 ng/mL | concentration at 7 h ([1]; female, CD-1, mouse, plasma, iv, 15 mg kg^−1, Concentration, Figure 6d, Time 7 h, individual replicates): 35.3 ng/mL | concentration at 24 h ([1]; female, CD-1, mouse, plasma, iv, 15 mg kg^−1, Concentration, Figure 6d, Time 24 h, individual replicates): 3.46 ng/mL | concentration at 0.5 h ([1]; female, CD-1, mouse, plasma, po, 200 mg kg^−1, Concentration, Figure 6c, Time 0.5 h, individual replicates): 644 ng/mL | concentration at 7 h ([1]; female, CD-1, mouse, plasma, po, 200 mg kg^−1, Concentration, Figure 6c, Time 7 h, individual replicates): 260 ng/mL | concentration at 0.5 h ([1]; female, CD-1, mouse, plasma, po, 200 mg kg^−1, Concentration, Figure 6d, Time 0.5 h, individual replicates): 254 ng/mL | concentration at 1 h ([1]; female, CD-1, mouse, plasma, po, 200 mg kg^−1, Concentration, Figure 6d, Time 1 h, individual replicates): 156 ng/mL | concentration at 7 h ([1]; female, CD-1, mouse, plasma, po, 200 mg kg^−1, Concentration, Figure 6d, Time 7 h, individual replicates): 201 ng/mL | concentration at […] ([1]; female, CD-1, mouse, plasma, po, 200 mg kg^−1, Concentration, Figure 6d, Time […], individual replicates): 131 ng/mL | concentration at 0.167 h ([1]; female, CD-1, mouse, plasma, po, 400 mg kg^−1, Concentration (ng/mL), mice, single p.o. LP-182 400 mg kg^−1, 0.167 h, analyte = label, individual animals): 175 ng/mL | concentration at 0.5 h ([1]; female, CD-1, mouse, plasma, po, 400 mg kg^−1, Concentration (ng/mL), mice, single p.o. LP-182 400 mg kg^−1, 0.5 h, analyte = label, individual animals): 399 ng/mL | concentration at 1 h ([1]; female, CD-1, mouse, plasma, po, 400 mg kg^−1, Concentration (ng/mL), mice, single p.o. LP-182 400 mg kg^−1, 1 h, analyte = label, individual animals): 500 ng/mL | concentration at 4 h ([1]; female, CD-1, mouse, plasma, po, 400 mg kg^−1, Concentration (ng/mL), mice, single p.o. LP-182 400 mg kg^−1, 4 h, analyte = label, individual animals): 76.7 ng/mL | concentration at 16 h ([1]; female, CD-1, mouse, plasma, po, 400 mg kg^−1, Concentration (ng/mL), mice, single p.o. LP-182 400 mg kg^−1, 16 h, analyte = label, individual animals): 68.3 ng/mL | concentration at 24 h ([1]; female, CD-1, mouse, plasma, po, 400 mg kg^−1, Concentration (ng/mL), mice, single p.o. LP-182 400 mg kg^−1, 24 h, analyte = label, individual animals): 78.6 ng/mL | plasma level maintained over 24 h ([1]; mice, after oral LP-182 400 mg kg^−1, analyte = label): ~100 ng/mL | uptake in the mesenteric lymph nodes compared to LP5-37 [2]: reduced uptake

concentration at 0.167 h (in vivo; iv): 3300 ng/mL | concentration at 0.5 h (in vivo; iv): 2510 ng/mL | concentration at 1 h (in vivo; iv): 1710 ng/mL | concentration at 2 h (in vivo; iv): 744 ng/mL | concentration at 24 h (in vivo; iv): 1 ng/mL | concentration at 0.167 h (in vivo; po): 626 ng/mL | concentration at 0.5 h (in vivo; po): 3700 ng/mL | concentration at 1 h (in vivo; po): 3440 ng/mL | concentration at 2 h (in vivo; po): 4880 ng/mL | concentration at 7 h (in vivo; po): 3930 ng/mL | concentration at 16 h (in vivo; po): 4430 ng/mL | Concentration [3]: 704 ng/mL
Compound: COc1ccc(-c2ccc3c(N4CCOC[C@@H]4C)nc(N4CCOC[C@@H]4C)nc3n2)cc1CO [AZD8055]
